Patent US11306080B2, “Crystalline form of a BACE inhibitor, compositions, and use” (Merck Sharp & Dohme Corp., priority 2017, dated 2022)
“Also recorded” adds a separate entry of the source.

What was measured:
Format in all cases: physicochemical
[1] = 4 week open dish accelerated chemical stability of 12 mg tablets, analyzed using HPLC; details: 40° C./75% RH
Description: To assess the chemical stability of Crystalline Form II of verubecestat in the tablet formulation, a 4 week open dish accelerated stability experiment was performed at a controlled temperature and humidity. Identical measurements were made to Crystalline Form I of verubecestat, which Form I is described in WO2016025364 for comparison. […] At the end of two weeks and of four weeks, tablets were analyzed using HPLC. The data obtained are reported in the following table, where “Hyd1” and “Hyd2” indicate observed degradation product: […]

[2] = BCS (Biopharmaceutics Classification System) designation; details: listed as Crystalline Form II of Verubecestat
[3] = Thermodynamic stability by competitive slurry experiments in various solvent systems, resultant form by PXRD; details: slurried in various solvents for an extended period of time at a controlled temperature
Description: The thermodynamic stability of Crystalline Form II of Verubecestat was assessed using competitive slurry experiments in various solvent systems. Crystalline Form I of Verubecestat, obtained using the procedures set out in WO2016025364, and Crystalline Form II of verubecestat material obtained as described above were slurried in various solvents for an extended period of time and at a controlled temperature. At the end of the experiments, the solvent was removed and the remaining crystalline material were evaluated using Powder X-ray Diffraction (PXRD) to confirm the resultant form.

| Structure (SMILES) | Assay (% LC) ([1]; 2 weeks) | Assay (% LC) ([1]; 4 weeks) | Assay (% LC) ([1]; time point 0) | Degradation Product (%) Hyd1 ([1]; time point 0) | Degradation Product (%) Hyd2 ([1]; time point 0) | Degradation Product (%) Total ([1]; time point 0) | BCS class [2] | Form remaining after competitive slurry of Form I and Form II (thermodynamic stability) [3] |
| --- | --- | --- | --- | --- | --- | --- | --- | --- |
| CN1C(N)=N[C@](C)(c2cc(NC(=O)c3ccc(F)cn3)ccc2F)CS1(=O)=O [Crystalline Form II, N-[3-[(5R)-3-amino-5,6-dihydro-2,5-dimethyl-1,1-dioxido-2H-1,2,4-thiadiazin-5-yl]-4-fluorophenyl]-5-fluoro-2-pyridinecarboxamide] | 104.6 | 102.4 | 104.3 | — (“—”means not more than 0.05%) | — (“—”means not more than 0.05%) | — (“—”means not more than 0.05%) | Class I; also recorded: Class 1 | the only form remaining |
| CN1C(=N)N[C@](C)(c2cc(NC(=O)c3ccc(F)cn3)ccc2F)CS1(=O)=O [Crystalline Form I, verubecestat, reference compound] | 98.5 | 97.4 | 98.5 | — (“—”means not more than 0.05%) | — (“—”means not more than 0.05%) | — (“—”means not more than 0.05%) | – | – |
